Source: US5914339A, “Substituted 1,3-benzodioxoles” (American Home Products Corporation, priority 1997, dated 1999)
Counter-ions that a name gives are not always drawn.

target: human β2 adrenergic receptor (Homo sapiens, UniProt P07550); test: cell-based; conditions: 10 min; compounds tested at 10 nM, isoproterenol at 10 μM; CHO cells, 10 min at 37° C; read-out: β2: % of isoproterenol activity (increase in cAMP)
Procedure: The activity of the test compounds on human β-adrenergic receptors was determined with Chinese hamster ovary (CHO) cells transfected with human β2, or β1 adrenergic receptors. Agonist activity is indicated by increased cAMP levels in the CHO cells. Selectivity of the test compounds for the β3 receptor was assessed by comparison with results in β2 and β1 adrenergic receptor transfected cells.
1). Chinese hamster ovary (CHO) cells transfected with human β2, or β1 adrenergic receptors were used in the assay.
2). Cells were grown to confluent conditions in 24 well plates.
3). Drugs were dissolved in DMSO at a concentration of 10 μM.
4). Cells were incubated with drug at 10 nM concentration for 10 min at 37° C.
5). Cell cAMP concentrations were assayed using a scintillation proximity assay kit from Amersham Corp., Chicago, Ill.
6). Activities for the test compounds are expressed as a percentage of the isoproterenol response.
Production of the CHO cells transfected with human β2, or β1 adrenergic receptors, and compound test procedures utilizing the CHO cells, are described by Emorine et al. in their article "Molecular Characterization of the Human Beta3 -Adrenergic Receptor", Science 1989, 245(8), 1118-1121 and by Muzzin et al. in the article "An Adipose Tissue-Specific Beta3 -Adrenergic Receptor", J. Biol. Chem.1991, 266, 24053-24058.
^a Human β receptors expressed in Chinese hamster ovary cells,
compounds tested at 10 nM, results expressed as % of isoproterenol
activity (increase in cAMP) at 10 μM. EC50 (μM) values
determined for selected compounds.

Chain of human β2 adrenergic receptor (P07550 whole entry): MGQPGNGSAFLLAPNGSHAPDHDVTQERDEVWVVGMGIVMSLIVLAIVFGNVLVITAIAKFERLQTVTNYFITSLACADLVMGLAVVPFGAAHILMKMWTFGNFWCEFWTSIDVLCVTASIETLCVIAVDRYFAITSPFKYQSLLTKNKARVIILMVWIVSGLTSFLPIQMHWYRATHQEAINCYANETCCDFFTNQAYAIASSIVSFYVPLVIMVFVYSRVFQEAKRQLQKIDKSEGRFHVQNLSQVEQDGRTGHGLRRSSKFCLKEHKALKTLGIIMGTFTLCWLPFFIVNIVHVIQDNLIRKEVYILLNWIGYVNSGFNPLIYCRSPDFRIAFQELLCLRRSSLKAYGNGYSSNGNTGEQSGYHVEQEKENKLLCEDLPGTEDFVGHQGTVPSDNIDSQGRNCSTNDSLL

Going from `CCOC(=O)C(C)OC(=O)C1(C(=O)OC(C)C(=O)OCC)Oc2ccc(CC(C)NCC(O)c3cccc(Cl)c3)cc2O1` (centres unmarked) [Example 29, 5-{2-[2-(3-Chloro-phenyl)-2-hydroxy-ethylamino]-propyl}-benzo[1,3]dioxole-2,2-dicarboxylic acid bis-(1-ethoxycarbonyl-ethyl) ester] to `CCC(=O)OC(C)OC(=O)C1(C(=O)OC(C)OC(=O)CC)Oc2ccc(CC(C)NCC(O)c3cccc(Cl)c3)cc2O1` (centres unmarked) [Example 51, 5-{2-[2-(3-Chloro-phenyl)-2-hydroxyethylamino]propyl}benzo[1,3] dioxole-2,2-dicarboxylic acid bis-(1-propionyloxy-ethyl) ester], the activation at 0.01 µM falls from 2% to 0%.

Going from `CC(OC(=O)OC1CCCCC1)OC(=O)C1(C(=O)OC(C)OC(=O)OC2CCCCC2)Oc2ccc(C[C@@H](C)NC[C@H](O)c3cccc(Cl)c3)cc2O1` (stereo partly drawn) [Example 59, 5-{(2R)-2-[(2R)-2-(3-Chloro-phenyl)-2-hydroxy-ethylamino]-propyl}-benzo[1,3]dioxole-2,2-dicarboxylic acid bis-[1-(cyclohexyloxycarbonyloxy)-ethyl] ester] to `CC(Cc1ccc2c(c1)OC(C(=O)OCCC1CCCCC1)(C(=O)OCCC1CCCCC1)O2)NCC(O)c1cccc(Cl)c1` (centres unmarked) [Example 36, 5-{2-[2-(3-Chloro-phenyl)-2-hydroxy-ethylamino]-propyl}-benzo[1,3]dioxole-2,2-dicarboxylic acid bis-(2-cyclohexyl-ethyl) ester], the activation at 0.01 µM falls from 10% to 2%.

`C[C@H](Cc1ccc2c(c1)OC(C(=O)OCC1CCCCO1)(C(=O)OCC1CCCCO1)O2)NC[C@H](O)c1cccc(Cl)c1` (stereo partly drawn) [Example 90, 5-{(2R)-2-[(2R)-2-(3-Chloro-phenyl)-2-hydroxy-ethylamino]-propyl}-benzo[1,3]dioxole-2,2-dicarboxylic aicd bis-(tetrahydro-pyran-2-ylmethyl) ester] and `C[C@H](Cc1ccc2c(c1)OC(C(=O)OCC1CCCO1)(C(=O)OCC1CCCO1)O2)NC[C@H](O)c1cccc(Cl)c1` (stereo partly drawn) [Example 91, 5-{(2R)-2-[(2R)-2-(3-Chloro-phenyl)-2-hydroxy-ethylamino]-propyl}-benzo[1,3]dioxole-2,2-dicarboxylic aicd bis-(tetrahydro-furan-2-ylmethyl) ester] are the same in activation at 0.01 µM: 7% for the first, 7% for the second.

First: CC(C)COCCOC(=O)C1(C(=O)OCCOCC(C)C)Oc2ccc(CC(C)NCC(O)c3cccc(Cl)c3)cc2O1 (centres unmarked) [Example 8, 5-{2-[2-(3-Chloro-phenyl)-2-hydroxy-ethylamino]-propyl}-benzo[1,3]dioxole-2,2-dicarboxylic acid bis-(2-isobutoxy-ethyl) ester]
Second: CC(Cc1ccc2c(c1)OC(C(=O)OCCOC(C)(C)C)(C(=O)OCCOC(C)(C)C)O2)NCC(O)c1cccc(Cl)c1 (centres unmarked) [Example 6, 5-{2-[2-(3-Chloro-phenyl)-2-hydroxy-ethylamino]-propyl}-benzo[1,3]dioxole-2,2-dicarboxylic acid bis-(2-tert-butoxy-ethyl) ester]
The activation at 0.01 µM of the first is lower: 1% for the first, 3% for the second.

First: CC(Cc1ccc2c(c1)OC(C(=O)OCCCl)(C(=O)OCCCl)O2)NCC(O)c1cccc(Cl)c1 (centres unmarked) [Example 73, 5-{2-[2-(3-Chloro-phenyl)-2-hydroxy-ethylamino]-propyl}-benzo[1,3]dioxole-2,2-dicarboxylic acid bis 2-(Chloro)ethyl ester]
Second: CCCCCCOC(=O)C1(C(=O)OCCCCCC)Oc2ccc(CC(C)NCC(O)c3cccc(Cl)c3)cc2O1 (centres unmarked) [Example 14, 5-{2-[2-(3-Chloro-phenyl)-2-hydroxy-ethylamino]-propyl}-benzo[1,3]dioxole-2,2-dicarboxylic acid dihexyl ester]
The activation at 0.01 µM of the first is lower: 0% for the first, 5% for the second.

First: CC(Cc1ccc2c(c1)OC(C(=O)O)(C(=O)O)O2)N1COC(c2cccc(Cl)c2)C1 (centres unmarked) [Example 66]
Second: CC(Cc1ccc2c(c1)OC(C(=O)OCOC(=O)C(C)C)(C(=O)OCOC(=O)C(C)C)O2)NCC(O)c1cccc(Cl)c1 (centres unmarked) [Example 45, 5-{2-[2-(3-Chloro-phenyl)-2-hydroxyethylamino]propyl}benzo[1,3] dioxole-2,2-dicarboxylic acid bis-isobutyryloxymethyl ester]
The activation at 0.01 µM of the first is higher: 3% for the first, 1% for the second.

Going from `CC(Cc1ccc2c(c1)OC(C(=O)OCOC(=O)C(C)(C)C)(C(=O)OCOC(=O)C(C)(C)C)O2)NCC(O)c1cccc(Cl)c1` (centres unmarked) [Example 49, 5-{2-[2-(3-Chloro-phenyl)-2-hydroxyethylamino]propyl}benzo[1,3] dioxole-2,2-dicarboxylic acid bis-(2,2-dimethyl-propionyloxymethyl) ester] to `CC(Cc1ccc2c(c1)OC(C(=O)OCOC(=O)CCC1CCCC1)(C(=O)OCOC(=O)CCC1CCCC1)O2)NCC(O)c1cccc(Cl)c1` (centres unmarked) [Example 55, 5-{2-[2-(3-Chloro-phenyl)-2-hydroxy-ethylamino]propyl}benzo[1,3]dioxole-2,2-dicarboxylic acid bis-(3-cyclopentyl-propionyloxymethyl) ester], the activation at 0.01 µM falls from 4% to 0%.

Going from `C[C@H](Cc1ccc2c(c1)OC(C(=O)OCC=Cc1ccccc1)(C(=O)OCC=Cc1ccccc1)O2)NC[C@H](O)c1cccc(Cl)c1` (stereo partly drawn) [Example 99, 5-{(2R)-2-[(2R)-2-(3-Chloro-phenyl)-2-hydroxy-ethylamino]-propyl}-benzo[1,3]dioxole-2,2-dicarboxylic acid bis-(3-phenyl-allyl)ester] to `CCCCCCCCCOC(=O)C1(C(=O)OCCCCCCCCC)Oc2ccc(CC(C)NCC(O)c3cccc(Cl)c3)cc2O1` (centres unmarked) [Example 18, 5-{2-[2-(3-Chloro-phenyl)-2-hydroxy-ethylamino]-propyl}-benzo[1,3]dioxole-2,2-dicarboxylic acid dinonyl ester], the activation at 0.01 µM falls from 16% to 6%.

same assay, conditions: CHO, 10 min, read-out: β2: % of isoproterenol activity (increase in cAMP)

Compared with `CC(Cc1ccc2c(c1)OC(C(N)=O)(C(N)=O)O2)NCC(O)c1cccc(Cl)c1` (centres unmarked) [Example 60, 5-{2-[2-(3-Chloro-phenyl)-2-hydroxy-ethylamino]-propyl}benzo[1,3]dioxole-2,2-dicarboxylic acid bis-amide], `CC(Cc1ccc2c(c1)OC(C(=O)OC1CCCCC1)(C(=O)OC1CCCCC1)O2)NCC(O)c1cccc(Cl)c1` (centres unmarked) [Example 10, 5-{2-[2-(3-Chloro-phenyl)-2-hydroxy-ethylamino]-propyl}-benzo[1,3]dioxole-2,2-dicarboxylic acid bis-(cyclohexyl) ester hydrochloride salt] is lower in activation at 0.01 µM: 3% for the first, 0% for the second.

Going from `C[C@H](Cc1ccc2c(c1)OC(C(=O)OCCc1cccc(Br)c1)(C(=O)OCCc1cccc(Br)c1)O2)NC[C@H](O)c1cccc(Cl)c1` [Example 96, 5-{(2R)-2-[(2R)-2-(3-Chloro-phenyl)-2-hydroxy-ethylamino]-propyl}-benzo[1,3]dioxole-2,2-dicarboxylic acid bis-[2-(3-bromo-phenyl)-ethyl]ester hydrochloride salt] to `CC(Cc1ccc2c(c1)OC(C(=O)OCc1ccccc1)(C(=O)OCc1ccccc1)O2)NCC(O)c1cccc(Cl)c1` (centres unmarked) [Example 9, 5-{2-[2-(3-Chloro-phenyl)-2-hydroxy-ethylamino]-propyl}-benzo[1,3]dioxole-2,2-dicarboxylic acid bis-(benzyl) ester hydrochloride salt], the activation at 0.01 µM rises from 1% to 16%.
